{
  "source": "paper PMC4876630",
  "about": "(Theranostics, 2016)",
  "origin": "cited, not measured here",
  "details": "ref [4]-[8]",
  "data": [
    {"smiles": "CC[C@@]1(O)C(=O)OCc2c1cc1n(c2=O)Cc2cc3ccccc3nc2-1", "note": "[CPT, camptothecin]", "values": [
      {"measurement": "Aqueous solubility", "value": "2 to 3", "unit": "µg/mL"}
    ]}
  ]
}
